In ChEMBL document CHEMBL2380228, “Nucleotide competing reverse transcriptase inhibitors: discovery of a series of non-basic benzofurano[3,2-d]pyrimidin-2-one derived inhibitors” (Bioorg Med Chem Lett, 2013):
Values after ≈ are worked out from the molar mass of the structure shown.

Test system: Human immunodeficiency virus type 1 BH10
Assay: Inhibition of HIV-1 BH10 reverse transcriptase using poly(rA)/oligo(dT)15 as substrate at > 685 nM after 60 mins by plate reader analysis
Conditions: not given

With `CCCn1c(=O)nc(-c2ccccc2)c2oc3ccc(-c4ccc(CN(C)C)cc4)cc3c21` the inhibition was 45%.

Test system: not listed separately
Assay: Cytotoxicity against human C8166-LTR-Luc cells assessed as inhibition of cell viability at > 3.6 uM after 3 days by MTT assay
Format: cell-based
Conditions: read-out: INH

Compound `COCCCn1c(=O)nc(-c2ccc(N3CCN(C4CC4)CC3)cc2)c2oc3ccc(Cl)cc3c21` has a cytotoxicity at 72 h of 20%.

Test system: not listed separately
Assay: Lipophilicity, log D of the compound in n-octanol buffer at 0.5 mg after 2 to 24 hrs by LC-MS analysis
Format: physicochemical
Conditions: not given

First: COCCCn1c(=O)nc(-c2ccc(N3CCN(C)CC3)nc2)c2oc3ccc(-c4cnn(C)c4)cc3c21
Second: CCCCCn1c(=O)nc(-c2ccc(NC)nc2)c2oc3ccc(-c4cnn(C)c4)cc3c21
The logD of the first is lower: 3 for the first, 4.7 for the second.

In the case of `CNc1ccc(-c2nc(=O)n(CCC3CCCO3)c3c2oc2ccc(-c4cnn(C)c4)cc23)cn1` (racemic), the logD is reported as 3.4.

Test system: not listed separately
Assay: Clearance in rat liver microsomes at 1 uM by LC-MS/MS analysis relative to hepatic blood flow
Format: ADME, Microsome
Conditions: read-out: CLH

For `CCNCC(=O)Nc1ccc(-c2nc(=O)n(CCOC)c3c2oc2ccc(-c4ccc5c(c4)CCN(C)C5)cc23)cc1`, the hepatic extraction ratio at 1 µM was 0.11.

Target: not listed separately
Assay: Inhibition of HIV-1 BH10 reverse transcriptase using poly(rA)/oligo(dT)15 as substrate after 60 mins by plate reader analysis
Design: species or system Human immunodeficiency virus type 1 BH10
Conditions: not given

First: COCCCn1c(=O)nc(-c2ccccc2)c2oc3ccc(-c4ccc(CN(C)C)cc4)cc3c21
Second: COCCn1c(=O)nc(-c2ccccc2)c2oc3ccc(-c4ccc(CN(C)C)cc4)cc3c21
The IC50 of the first is 60-fold lower: 39 nM for the first, 2330 nM for the second. The first is the more potent here.

`CCn1c(=O)nc(-c2ccccc2)c2oc3ccc(-c4ccc(CN(C)C)cc4)cc3c21` and `CCCn1c(=O)nc(-c2ccccc2)c2oc3ccc(-c4ccc(CN(C)C)cc4)cc3c21` cannot be ordered by IC50: 890 nM for the first, greater than 685 nM for the second.

`COCCCn1c(=O)nc(-c2ccc(N3CCN(C(C)C)CC3)cc2)c2oc3ccc(Cl)cc3c21` and `COCCCn1c(=O)nc(-c2ccc(N3CCN(CCOC)CC3)cc2)c2oc3ccc(Cl)cc3c21` are within 1.5-fold of each other in IC50: 9.1 nM for the first, 10 nM for the second.

First: COCCCn1c(=O)nc(-c2ccc(N3CCNCC3)cc2)c2oc3ccc(Cl)cc3c21
Second: COCCCn1c(=O)nc(-c2ccc(N3CCN(C4CC4)CC3)cc2)c2oc3ccc(Cl)cc3c21
The IC50 of the first is 7.6-fold lower: 1.7 nM for the first, 13 nM for the second. The first is the more potent here.

`COC[C@H](C)Cn1c(=O)nc(-c2ccccc2)c2oc3ccc(-c4ccc(CN(C)C)cc4)cc3c21` and `CC(C)CCn1c(=O)nc(-c2ccccc2)c2oc3ccc(-c4ccc(CN(C)C)cc4)cc3c21` are within 1.5-fold of each other in IC50: 195 nM for the first, 190 nM for the second.

Going from `CCCCCn1c(=O)nc(-c2ccccc2)c2oc3ccc(-c4ccc(CN(C)C)cc4)cc3c21` to `CN(C)Cc1ccc(-c2ccc3oc4c(-c5ccccc5)nc(=O)n(C)c4c3c2)cc1`, the IC50 rises from 27 nM to 645 nM (24-fold).

`CCNCC(=O)Nc1ccc(-c2nc(=O)n(CCOC)c3c2oc2ccc(-c4ccc5c(c4)CCN(C)C5)cc23)cc1` and `COCCCn1c(=O)nc(-c2ccc(N3CCN(C)CC3)nc2)c2oc3ccc(-c4cnn(C)c4)cc3c21` are within 1.5-fold of each other in IC50: 4 nM for the first, 3 nM for the second.

Going from `CN(C)Cc1ccc(-c2ccc3oc4c(-c5ccccc5)nc(=O)n(CCCc5ccccc5)c4c3c2)cc1` to `CCCCCn1c(=O)nc(-c2ccc(NC)nc2)c2oc3ccc(-c4cnn(C)c4)cc3c21`, the IC50 falls from greater than 365 nM to 2 nM. The second is the more potent here.

In the case of `CNc1ccc(-c2nc(=O)n(CCC3CCCO3)c3c2oc2ccc(-c4cnn(C)c4)cc23)cn1` (racemic), the IC50 is reported as 1.5 nM.

Test system: Human immunodeficiency virus 1
Assay: Antiviral activity against wild type HIV1-infected human C8166 cells after 1.5 hrs by luciferase reporter gene assay
Format: functional, organism-based
Conditions: Human immunodeficiency virus 1, C8166, 1.5 h

Compared with `COCCCn1c(=O)nc(-c2ccc(N3CCN(C(C)C)CC3)cc2)c2oc3ccc(Cl)cc3c21`, `COCCCn1c(=O)nc(-c2ccc(N3CCN(CCOC)CC3)cc2)c2oc3ccc(Cl)cc3c21` is 3.7-fold higher in EC50: 35 nM for the first, 130 nM for the second.

Compared with `COCCCn1c(=O)nc(-c2ccc(N3CCNCC3)cc2)c2oc3ccc(Cl)cc3c21`, `COCCCn1c(=O)nc(-c2ccc(N3CCN(C4CC4)CC3)cc2)c2oc3ccc(Cl)cc3c21` is 12-fold higher in EC50: 25 nM for the first, 290 nM for the second.

Going from `CCNCC(=O)Nc1ccc(-c2nc(=O)n(CCOC)c3c2oc2ccc(-c4ccc5c(c4)CCN(C)C5)cc23)cc1` to `COCCCn1c(=O)nc(-c2ccc(N3CCN(C)CC3)nc2)c2oc3ccc(-c4cnn(C)c4)cc3c21`, the EC50 falls from 30 nM to 6 nM (5-fold). The second is the more potent here.

`CCCCCn1c(=O)nc(-c2ccc(NC)nc2)c2oc3ccc(-c4cnn(C)c4)cc3c21` and `CNc1ccc(-c2nc(=O)n(CCC3CCCO3)c3c2oc2ccc(-c4cnn(C)c4)cc23)cn1` (racemic) are within 1.5-fold of each other in EC50: 18 nM for the first, 13 nM for the second.

Test system: not listed separately
Assay: Cytotoxicity against human C8166-LTR-Luc cells after 3 days by MTT assay
Format: cell-based
Conditions: not given

Going from `COCCCn1c(=O)nc(-c2ccc(N3CCN(C(C)C)CC3)cc2)c2oc3ccc(Cl)cc3c21` to `COCCCn1c(=O)nc(-c2ccc(N3CCN(CCOC)CC3)cc2)c2oc3ccc(Cl)cc3c21`, the CC50 at 72 h rises from 2300 nM to greater than 4200 nM.

Going from `COCCCn1c(=O)nc(-c2ccc(N3CCNCC3)cc2)c2oc3ccc(Cl)cc3c21` to `COCCCn1c(=O)nc(-c2ccc(N3CCN(C4CC4)CC3)cc2)c2oc3ccc(Cl)cc3c21`, the CC50 at 72 h rises from 2700 nM to greater than 3600 nM.

Compared with `CCNCC(=O)Nc1ccc(-c2nc(=O)n(CCOC)c3c2oc2ccc(-c4ccc5c(c4)CCN(C)C5)cc23)cc1`, `COCCCn1c(=O)nc(-c2ccc(N3CCN(C)CC3)nc2)c2oc3ccc(-c4cnn(C)c4)cc3c21` is higher in CC50 at 72 h: 4100 nM for the first, greater than 21700 nM for the second.

`CCCCCn1c(=O)nc(-c2ccc(NC)nc2)c2oc3ccc(-c4cnn(C)c4)cc3c21` and `CNc1ccc(-c2nc(=O)n(CCC3CCCO3)c3c2oc2ccc(-c4cnn(C)c4)cc23)cn1` (racemic) are within 1.5-fold of each other in CC50 at 72 h: 4000 nM for the first, 3800 nM for the second.

Test system: not listed separately
Assay: Solubility of the compound in phosphate buffer at pH 2.0 after 24 hrs at 25 degC by LC-MS analysis
Format: physicochemical
Conditions: not given

`COCCCn1c(=O)nc(-c2ccc(N3CCN(C)CC3)nc2)c2oc3ccc(-c4cnn(C)c4)cc3c21` and `CCCCCn1c(=O)nc(-c2ccc(NC)nc2)c2oc3ccc(-c4cnn(C)c4)cc3c21` cannot be ordered by solubility at 24 h: greater than 1000 µg/mL for the first, greater than 1000 µg/mL for the second.

Work on `CNc1ccc(-c2nc(=O)n(CCC3CCCO3)c3c2oc2ccc(-c4cnn(C)c4)cc23)cn1` (racemic) yielded a solubility at 24 h greater than 1000 µg/mL.

Test system: Human immunodeficiency virus type 1 BH10
Assay: Inhibition of HIV-1 BH10 reverse transcriptase using poly(rA)/oligo(dT)15 as substrate at > 365 nM after 60 mins by plate reader analysis
Conditions: not given

Compound `CN(C)Cc1ccc(-c2ccc3oc4c(-c5ccccc5)nc(=O)n(CCCc5ccccc5)c4c3c2)cc1` has an inhibition of 25%.

Test system: not listed separately
Assay: Clearance in human liver microsomes at 1 uM by LC-MS/MS analysis relative to hepatic blood flow
Format: ADME, Microsome
Conditions: read-out: CLH

Compared with `COCCCn1c(=O)nc(-c2ccc(N3CCN(C(C)C)CC3)cc2)c2oc3ccc(Cl)cc3c21`, `COCCCn1c(=O)nc(-c2ccc(N3CCN(CCOC)CC3)cc2)c2oc3ccc(Cl)cc3c21` is higher in hepatic extraction ratio at 1 µM: 0.51 for the first, 0.61 for the second.

Going from `COCCCn1c(=O)nc(-c2ccc(N3CCNCC3)cc2)c2oc3ccc(Cl)cc3c21` to `COCCCn1c(=O)nc(-c2ccc(N3CCN(C4CC4)CC3)cc2)c2oc3ccc(Cl)cc3c21`, the hepatic extraction ratio at 1 µM rises from 0.28 to 0.52.

Going from `CCNCC(=O)Nc1ccc(-c2nc(=O)n(CCOC)c3c2oc2ccc(-c4ccc5c(c4)CCN(C)C5)cc23)cc1` to `COCCCn1c(=O)nc(-c2ccc(N3CCN(C)CC3)nc2)c2oc3ccc(-c4cnn(C)c4)cc3c21`, the hepatic extraction ratio at 1 µM rises from 0.29 to 0.67.

Compared with `CCCCCn1c(=O)nc(-c2ccc(NC)nc2)c2oc3ccc(-c4cnn(C)c4)cc3c21`, `CNc1ccc(-c2nc(=O)n(CCC3CCCO3)c3c2oc2ccc(-c4cnn(C)c4)cc23)cn1` (racemic) is lower in hepatic extraction ratio at 1 µM: 0.81 for the first, 0.61 for the second.

Test system: not listed separately
Assay: Solubility of the compound in phosphate buffer at pH 6.8 after 24 hrs at 25 degC by LC-MS analysis
Format: physicochemical
Conditions: not given

Going from `COCCCn1c(=O)nc(-c2ccc(N3CCN(C)CC3)nc2)c2oc3ccc(-c4cnn(C)c4)cc3c21` to `CCCCCn1c(=O)nc(-c2ccc(NC)nc2)c2oc3ccc(-c4cnn(C)c4)cc3c21`, the solubility at 24 h falls from greater than 1000 µg/mL to 0.27 µg/mL (≈ 0.61 µM).

Work on `CNc1ccc(-c2nc(=O)n(CCC3CCCO3)c3c2oc2ccc(-c4cnn(C)c4)cc23)cn1` (racemic) yielded a solubility at 24 h greater than 984 µg/mL.

Test system: not listed separately
Assay: Permeability from apical to basolateral side of human Caco2 cells
Format: ADME, cell-based
Conditions: Caco-2, read-out: permeability

Going from `COCCCn1c(=O)nc(-c2ccc(N3CCN(C(C)C)CC3)cc2)c2oc3ccc(Cl)cc3c21` to `COCCCn1c(=O)nc(-c2ccc(N3CCN(CCOC)CC3)cc2)c2oc3ccc(Cl)cc3c21`, the Papp A→B rises from 2.7 ×10⁻⁶ cm/s to 8 ×10⁻⁶ cm/s (3-fold).

Compared with `COCCCn1c(=O)nc(-c2ccc(N3CCNCC3)cc2)c2oc3ccc(Cl)cc3c21`, `COCCCn1c(=O)nc(-c2ccc(N3CCN(C4CC4)CC3)cc2)c2oc3ccc(Cl)cc3c21` is 30-fold higher in Papp A→B: 0.3 ×10⁻⁶ cm/s for the first, 8.9 ×10⁻⁶ cm/s for the second.

Compared with `CCNCC(=O)Nc1ccc(-c2nc(=O)n(CCOC)c3c2oc2ccc(-c4ccc5c(c4)CCN(C)C5)cc23)cc1`, `COCCCn1c(=O)nc(-c2ccc(N3CCN(C)CC3)nc2)c2oc3ccc(-c4cnn(C)c4)cc3c21` is higher in Papp A→B: less than 0.1 ×10⁻⁶ cm/s for the first, 0.4 ×10⁻⁶ cm/s for the second.

First: CCCCCn1c(=O)nc(-c2ccc(NC)nc2)c2oc3ccc(-c4cnn(C)c4)cc3c21
Second: CNc1ccc(-c2nc(=O)n(CCC3CCCO3)c3c2oc2ccc(-c4cnn(C)c4)cc23)cn1 (racemic)
The Papp A→B of the first is 3.2-fold higher: 9.8 ×10⁻⁶ cm/s for the first, 3.1 ×10⁻⁶ cm/s for the second.
